Experimental findings from patent publication US20220169628A1 (University of Florida Research Foundation, Incorporated, priority 2019, published 2022) are described below.

What all share (format): cell-based
The subject of test [1] is MOLT-4 cells. Nature of the test: Cell viability assay, MTS, 72 h, MOLT-4. The conditions noted are these: Homo sapiens; MOLT-4 cells, 72 h, MTS. The procedure: (§1) Cancer cells from different tissue origins including acute lymphoblastic leukemia (MOLT4 and RS4; 11), small cell lung cancer (NCI-H146 or simply H146), and multiple myeloma (EJM and H929) were incubated with increasing concentrations of Examples 1-21 or ABT-263 for 72 h. Cell viability was measured by tetrazolium-based MTS assay. 5×10^4 to 1×10^5 suspension cells or 3×10^3 to 5×10^3 adherent cells were seeded and treated in 96-well plates for 72 h. The EC50 values of individual agents were calculated with GraphPad Prism.

Test [2] has as its system RS4 cells. Nature of the test: Cell viability assay, MTS, 72 h, RS4;11. The conditions noted are these: Homo sapiens. The procedure:
as §1

Test [3] has as its system MOLT-4 cells. Nature of the test: Cell viability assay, MTS, 48 h, MOLT-4. As to conditions: Homo sapiens, MOLT-4, 48 h. As to the method: (§2) Acute lymphoblastic leukemia cells (MOLT-4 and RS4; 11) or small cell lung cancer (NCI-H146 or simply H146) were incubated with increasing concentrations of Bcl-xL degraders for 48 h. Cell viability was measured by tetrazolium-based MTS assay.

Test [4] deals with RS4;11 cells. As to the kind of experiment: Cell viability assay, MTS, 48 h, RS4;11. As to conditions: Homo sapiens, RS4-11, 48 h. The procedure: as §2
In test [5] the test system is NCI-H146 cells. As to the kind of experiment: Cell viability assay, MTS, 48 h, NCI-H146. As to conditions: Homo sapiens. As to the method: as §2
In test [6] the test system is human platelets. As to the kind of experiment: Human platelet viability, 48 h. The conditions noted are these: Platelet.
Test [7] deals with Bcl-xL (Homo sapiens, UniProt Q07817). Nature of the test: Protein degradation assay in MOLT-4 cells (western blot). More on the design: endogenous in cells; host or cells: MOLT-4 cells. The conditions noted are these: 16 h, read-out: DC50 (concentration with 50% degradation) of Bcl-xL. As to the method: MOLT4 cells and human platelets were incubated with increasing concentrations of test compounds for 16 h. The cells were harvested and lysed in RIPA lysis buffer supplemented with protease and phosphatase inhibitor cocktails. An equal amount of protein (20 μg/lane) was resolved on a pre-cast 4-20% SDS-PAGE gel. Proteins were subsequently transferred to NOVEX PVDF membranes by electrophoresis. The membranes were blocked in blocking buffer (5% non-fat dry milk in TBS-T), and incubated with primary antibodies (at optimized concentrations) overnight at 4° C. After three washings in TBS-T, the membranes were incubated with an appropriate HRP-conjugated secondary antibody for 1 h at room temperature. After extensive washing for three times, the proteins of interest were detected with ECL western blotting detection reagents and recorded with autoradiography (Pierce Biotech, Rockford, Ill., USA). The primary antibodies for Bcl-xL (Cat #2762), Bcl-2 (Cat #2872), Mcl-1 (Cat #5453) and β-actin (Cat #4970) were purchased from Cell Signaling technology. The relative band intensity was measured using ImageJ software and normalized to b-actin. The DC50 (concentration with 50% degradation) was calculated using GraphPad Prism.
Bcl-xL, sequence (Q07817 whole entry): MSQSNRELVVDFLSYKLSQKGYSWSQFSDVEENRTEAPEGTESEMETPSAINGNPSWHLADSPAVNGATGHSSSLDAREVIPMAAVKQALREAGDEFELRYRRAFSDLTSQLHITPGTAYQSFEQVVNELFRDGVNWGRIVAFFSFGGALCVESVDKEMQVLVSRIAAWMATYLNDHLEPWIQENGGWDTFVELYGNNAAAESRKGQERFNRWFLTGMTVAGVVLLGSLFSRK
MOLT-4 cells and human platelets were incubated with increasing concentrations of test compounds for 16 h. The cells were harvested and lysed in RIPA lysis buffer supplemented with protease and phosphatase inhibitor cocktails. An equal amount of protein (20 μg/lane) was resolved on a pre-cast 4-20% SDS-PAGE gel. Proteins were subsequently transferred to NOVEX PVDF membranes by electrophoresis. […] After extensive washing for three times, the proteins of interest were detected with ECL western blotting detection reagents and recorded with autoradiography (Pierce Biotech, Rockford, Ill., USA). […] The relative band intensity was measured using ImageJ software and normalized to β-actin. The DC50 was calculated using GraphPad Prism.

Read-outs that look alike come from different tables or passages of the source.

Turning to `Cc1ncsc1-c1ccc([C@H](C)NC(=O)[C@@H]2C[C@@H](O)CN2C(=O)[C@@H](NC(=O)CCCCCCCCCC(=O)NCC2(C)CCC(c3ccc(Cl)cc3)=C(CN3CCN(c4ccc(C(=O)NS(=O)(=O)c5ccc(N[C@H](CCN6CCOCC6)CSc6ccccc6)c(S(=O)(=O)C(F)(F)F)c5)cc4)CC3)C2)C(C)(C)C)cc1` (stereo partly drawn) [Compound 54, N^1-((4′-chloro-4-methyl-6-((4-(4-(((4-(((R)-4-morpholino-1-(phenylthio)butan-2-yl)amino)-3-((trifluoromethyl)sulfonyl)phenyl)sulfonyl)carbamoyl)phenyl)piperazin-1-yl)methyl)-2,3,4,5-tetrahydro-[1,1′-biphenyl]-4-yl)methyl)-N^11—((S)-1-((2S,4R)-4-hydroxy-2-(((S)-1-(4-(4-methylthiazol-5-yl)phenyl)ethyl)carbamoyl)pyrrolidin-1-yl)-3,3-dimethyl-1-oxobutan-2-yl)undecanediamide], the IC50 stood at 74 nM in test [1] and 19.4 nM in test [2].
With `Cc1ncsc1-c1ccc([C@H](C)NC(=O)[C@@H]2C[C@@H](O)CN2C(=O)[C@@H](NC(=O)CCCCCCCCCCC(=O)NCC2(C)CCC(c3ccc(Cl)cc3)=C(CN3CCN(c4ccc(C(=O)NS(=O)(=O)c5ccc(N[C@H](CCN6CCOCC6)CSc6ccccc6)c(S(=O)(=O)C(F)(F)F)c5)cc4)CC3)C2)C(C)(C)C)cc1` (stereo partly drawn) [Compound 55, N^1-((4′-chloro-4-methyl-6-((4-(4-(((4-(((R)-4-morpholino-1-(phenylthio)butan-2-yl)amino)-3-((trifluoromethyl)sulfonyl)phenyl)sulfonyl)carbamoyl)phenyl)piperazin-1-yl)methyl)-2,3,4,5-tetrahydro-[1,1′-biphenyl]-4-yl)methyl)-N^2—((S)-1-((2S,4R)-4-hydroxy-2-(((S)-1-(4-(4-methylthiazol-5-yl)phenyl)ethyl)carbamoyl)pyrrolidin-1-yl)-3,3-dimethyl-1-oxobutan-2-yl)dodecanediamide], the results for the IC50 in test [1] and in test [2] were 111 nM and 96 nM, respectively.
The corresponding values for `Cc1ncsc1-c1ccc([C@H](C)NC(=O)[C@@H]2C[C@@H](O)CN2C(=O)[C@@H](NC(=O)CCCCCCCCCCCC(=O)NCC2(C)CCC(c3ccc(Cl)cc3)=C(CN3CCN(c4ccc(C(=O)NS(=O)(=O)c5ccc(N[C@H](CCN6CCOCC6)CSc6ccccc6)c(S(=O)(=O)C(F)(F)F)c5)cc4)CC3)C2)C(C)(C)C)cc1` (stereo partly drawn) [Compound 56, N^1-((4′-chloro-4-methyl-6-((4-(4-(((4-(((R)-4-morpholino-1-(phenylthio)butan-2-yl)amino)-3-((trifluoromethyl)sulfonyl)phenyl)sulfonyl)carbamoyl)phenyl)piperazin-1-yl)methyl)-2,3,4,5-tetrahydro-[1,1′-biphenyl]-4-yl)methyl)-N^13—((S)-1-((2S,4R)-4-hydroxy-2-(((S)-1-(4-(4-methylthiazol-5-yl)phenyl)ethyl)carbamoyl)pyrrolidin-1-yl)-3,3-dimethyl-1-oxobutan-2-yl)tridecanediamide] are 333 nM and 410 nM.
The corresponding values for `Cc1ncsc1-c1ccc([C@H](C)NC(=O)[C@@H]2C[C@@H](O)CN2C(=O)[C@@H](NC(=O)COCCOCCOCCOCC(=O)NCC2(C)CCC(c3ccc(Cl)cc3)=C(CN3CCN(c4ccc(C(=O)NS(=O)(=O)c5ccc(N[C@H](CCN6CCOCC6)CSc6ccccc6)c(S(=O)(=O)C(F)(F)F)c5)cc4)CC3)C2)C(C)(C)C)cc1` (stereo partly drawn) [Compound 59, N^1-((4′-chloro-4-methyl-6-((4-(4-(((4-(((R)-4-morpholino-1-(phenylthio)butan-2-yl)amino)-3-((trifluoromethyl)sulfonyl)phenyl)sulfonyl)carbamoyl)phenyl)piperazin-1-yl)methyl)-2,3,4,5-tetrahydro-[1,1′-biphenyl]-4-yl)methyl)-N^14—((S)-1-((2S,4R)-4-hydroxy-2-(((S)-1-(4-(4-methylthiazol-5-yl)phenyl)ethyl)carbamoyl)pyrrolidin-1-yl)-3,3-dimethyl-1-oxobutan-2-yl)-3,6,9,12-tetraoxatetradecanediamide] are 973 nM and 404 nM.
The like results for `Cc1ncsc1-c1ccc([C@H](C)NC(=O)[C@@H]2C[C@@H](O)CN2C(=O)[C@@H](NC(=O)COCCOCCOCCOCCOCC(=O)NCC2(C)CCC(c3ccc(Cl)cc3)=C(CN3CCN(c4ccc(C(=O)NS(=O)(=O)c5ccc(N[C@H](CCN6CCOCC6)CSc6ccccc6)c(S(=O)(=O)C(F)(F)F)c5)cc4)CC3)C2)C(C)(C)C)cc1` (stereo partly drawn) [Compound 60, N^1-((4′-chloro-4-methyl-6-((4-(4-(((4-(((R)-4-morpholino-1-(phenylthio)butan-2-yl)amino)-3-((trifluoromethyl)sulfonyl)phenyl)sulfonyl)carbamoyl)phenyl)piperazin-1-yl)methyl)-2,3,4,5-tetrahydro-[1,1′-biphenyl]-4-yl)methyl)-N^17—((S)-1-((2S,4R)-4-hydroxy-2-(((S)-1-(4-(4-methylthiazol-5-yl)phenyl)ethyl)carbamoyl)pyrrolidin-1-yl)-3,3-dimethyl-1-oxobutan-2-yl)-3,6,9,12,15-pentaoxaheptadecanediamide] were, in that order, 1410 nM and 758 nM.
`CC1(CNC(=O)CCCCCNc2cccc3c2C(=O)N(C2CCC(=O)NC2=O)C3=O)CCC(c2ccc(Cl)cc2)=C(CN2CCN(c3ccc(C(=O)NS(=O)(=O)c4ccc(N[C@H](CCN5CCOCC5)CSc5ccccc5)c(S(=O)(=O)C(F)(F)F)c4)cc3)CC2)C1` (stereo partly drawn) [Compound 62, 4-(4-((4′-chloro-4-((6-((2-(2,6-dioxopiperidin-3-yl)-1,3-dioxoisoindolin-4-yl)amino)hexanamido)methyl)-4-methyl-3,4,5,6-tetrahydro-[1,1′-biphenyl]-2-yl)methyl)piperazin-1-yl)-N-((4-(((R)-4-morpholino-1-(phenylthio)butan-2-yl)amino)-3-((trifluoromethyl)sulfonyl)phenyl)sulfonyl)benzamide]: the concentration for half-maximal inhibition (IC50) stood at 36 nM in test [1] and 33 nM in test [2].
Take `Cc1ncsc1-c1ccc([C@H](C)NC(=O)[C@@H]2C[C@@H](O)CN2C(=O)[C@@H](NC(=O)CCCCCCCCC(=O)NC[C@@]2(C)CCC(c3ccc(Cl)cc3)=C(CN3CCN(c4ccc(C(=O)NS(=O)(=O)c5ccc(N[C@H](CCN6CCOCC6)CSc6ccccc6)c(S(=O)(=O)C(F)(F)F)c5)cc4)CC3)C2)C(C)(C)C)cc1` [degrader #41, N1-(((S)-4′-chloro-4-methyl-6-((4-(4-(((4-(((R)-4-morpholino-1-(phenylthio)butan-2-yl)amino)-3-((trifluoromethyl)sulfonyl)phenyl)sulfonyl)carbamoyl)phenyl)piperazin-1-yl)methyl)-2,3,4,5-tetrahydro-[1,1′-biphenyl]-4-yl)methyl)-N10-((S)-1-((2S,4R)-4-hydroxy-2-(((S)-1-(4-(4-methylthiazol-5-yl)phenyl)ethyl)carbamoyl)pyrrolidin-1-yl)-3,3-dimethyl-1-oxobutan-2-yl)decanediamide]: the IC50 in test [3] (48 h, read-out: MOLT-4 IC50 (nM, 48 h)) was 154 nM; in test [3] (48 hours, read-out: IC50 (48 hours) MOLT-4) it was 150 to 500 nM; in test [4] (48 h, read-out: RS4, 11 IC50 (nM, 48 h)), 497 nM; in test [4] (48 hours, read-out: IC50 (48 hours) RS4;11), over 500 nM; in test [5], 314 nM; in test [6], 10 µM. The DC50 in test [7] is 101 nM.
